Laboratory results from ChEMBL document CHEMBL5465560, “Selectivity Literature for EUbOPEN Chemogenomic Library” (2024).

Legend:
[1] = molecular target: Ribosomal protein S6 kinase alpha-1 (Homo sapiens, UniProt Q15418); test: Selectivity interaction (KinomeScan (DiscoverX)) EUB0001049a RPS6KA1; conditions: at 1 µM
[2] = molecular target: Serine/threonine-protein kinase N1 (Homo sapiens, UniProt Q16512); test: Selectivity interaction (KinomeScan (DiscoverX)) EUB0001079a PKN1; conditions: at 1 µM
[3] = molecular target: T1, cGMP-dependent protein kinase 1 (Homo sapiens) (UniProt Q13976); test: Selectivity interaction (KinomeScan (DiscoverX)) EUB0000092b PRKG1; conditions: at 10 µM
T1 sequence (whole entry): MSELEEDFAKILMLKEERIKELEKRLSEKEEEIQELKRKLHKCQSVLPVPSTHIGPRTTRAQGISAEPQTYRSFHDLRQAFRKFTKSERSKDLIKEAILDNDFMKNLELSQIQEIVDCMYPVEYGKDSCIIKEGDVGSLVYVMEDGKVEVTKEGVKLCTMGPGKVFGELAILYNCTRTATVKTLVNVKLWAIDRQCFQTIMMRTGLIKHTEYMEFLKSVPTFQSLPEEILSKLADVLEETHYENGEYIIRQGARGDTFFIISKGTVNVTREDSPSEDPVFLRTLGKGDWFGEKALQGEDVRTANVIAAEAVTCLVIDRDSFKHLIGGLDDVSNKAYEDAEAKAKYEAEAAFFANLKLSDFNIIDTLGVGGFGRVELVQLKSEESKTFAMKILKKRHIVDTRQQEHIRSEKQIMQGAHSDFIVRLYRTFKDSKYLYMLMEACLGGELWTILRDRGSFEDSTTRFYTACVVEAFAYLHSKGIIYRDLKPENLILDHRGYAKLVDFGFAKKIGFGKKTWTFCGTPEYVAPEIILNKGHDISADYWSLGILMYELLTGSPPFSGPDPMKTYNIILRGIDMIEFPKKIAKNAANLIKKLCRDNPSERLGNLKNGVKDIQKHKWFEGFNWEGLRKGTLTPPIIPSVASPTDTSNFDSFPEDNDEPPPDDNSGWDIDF

[4] = molecular target: Calcium/calmodulin-dependent protein kinase type II subunit delta (Homo sapiens) (UniProt Q13557); test: Selectivity interaction (KinomeScan (DiscoverX)) EUB0000045b CAMK2D
[5] = molecular target: Receptor-interacting serine/threonine-protein kinase 2 (Homo sapiens, UniProt O43353); test: Selectivity interaction (KinomeScan (DiscoverX)) EUB0000618a RIPK2; conditions: at 10 µM
[6] = molecular target: T2, Mitogen-activated protein kinase 15 (Homo sapiens) (UniProt Q8TD08); test: Selectivity interaction (KinomeScan (DiscoverX)) EUB0001619a MAPK15; conditions: at 1 µM
T2 sequence (whole entry): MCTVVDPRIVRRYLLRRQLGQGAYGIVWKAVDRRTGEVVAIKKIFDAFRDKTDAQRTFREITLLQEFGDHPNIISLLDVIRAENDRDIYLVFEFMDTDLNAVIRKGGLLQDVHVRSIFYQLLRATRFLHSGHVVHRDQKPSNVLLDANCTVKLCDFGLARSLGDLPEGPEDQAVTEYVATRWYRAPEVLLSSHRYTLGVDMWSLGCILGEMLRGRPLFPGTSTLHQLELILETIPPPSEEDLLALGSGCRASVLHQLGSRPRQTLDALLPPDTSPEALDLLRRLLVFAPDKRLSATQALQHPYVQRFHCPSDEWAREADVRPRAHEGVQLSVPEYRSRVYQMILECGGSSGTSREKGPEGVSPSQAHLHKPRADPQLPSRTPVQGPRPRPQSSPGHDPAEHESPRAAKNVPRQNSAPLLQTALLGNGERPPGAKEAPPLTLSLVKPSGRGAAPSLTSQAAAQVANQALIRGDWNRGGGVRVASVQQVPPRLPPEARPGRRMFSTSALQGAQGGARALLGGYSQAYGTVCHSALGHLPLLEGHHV

[7] = molecular target: Ribosomal protein S6 kinase alpha-2 (Homo sapiens) (UniProt Q15349); test: Selectivity interaction (KinomeScan (DiscoverX)) EUB0000695a RPS6KA2; conditions: at 100 nM
[8] = molecular target: T3, Serine/threonine-protein kinase D1 (Homo sapiens) (UniProt Q15139); test: Selectivity interaction (ProQinase) EUB0000171b PRKD1
T3 sequence (whole entry): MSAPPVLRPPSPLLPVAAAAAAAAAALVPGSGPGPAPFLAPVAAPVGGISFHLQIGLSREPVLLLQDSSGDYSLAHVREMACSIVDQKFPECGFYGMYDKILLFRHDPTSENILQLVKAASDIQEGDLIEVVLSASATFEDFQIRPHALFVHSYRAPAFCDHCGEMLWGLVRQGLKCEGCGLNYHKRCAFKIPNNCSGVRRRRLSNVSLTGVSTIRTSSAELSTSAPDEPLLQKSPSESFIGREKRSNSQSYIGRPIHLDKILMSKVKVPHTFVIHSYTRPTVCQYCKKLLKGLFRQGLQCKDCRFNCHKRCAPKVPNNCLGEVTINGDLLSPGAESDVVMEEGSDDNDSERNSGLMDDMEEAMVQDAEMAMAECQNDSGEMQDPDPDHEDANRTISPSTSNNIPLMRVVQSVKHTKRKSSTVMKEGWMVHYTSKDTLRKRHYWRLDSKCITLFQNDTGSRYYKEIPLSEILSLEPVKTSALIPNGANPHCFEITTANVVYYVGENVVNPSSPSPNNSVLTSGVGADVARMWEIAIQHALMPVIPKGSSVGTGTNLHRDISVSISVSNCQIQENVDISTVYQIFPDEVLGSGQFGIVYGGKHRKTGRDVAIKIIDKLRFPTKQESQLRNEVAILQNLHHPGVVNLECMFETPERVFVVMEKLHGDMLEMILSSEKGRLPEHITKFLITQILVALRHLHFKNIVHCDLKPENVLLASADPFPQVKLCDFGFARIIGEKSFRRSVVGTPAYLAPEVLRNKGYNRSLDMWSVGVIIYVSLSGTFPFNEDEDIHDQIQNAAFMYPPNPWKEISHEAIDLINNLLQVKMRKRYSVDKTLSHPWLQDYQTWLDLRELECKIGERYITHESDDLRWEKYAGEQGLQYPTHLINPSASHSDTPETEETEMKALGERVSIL

Chain of Calcium/calmodulin-dependent protein kinase type II subunit delta (Homo sapiens) (Q13557 whole entry): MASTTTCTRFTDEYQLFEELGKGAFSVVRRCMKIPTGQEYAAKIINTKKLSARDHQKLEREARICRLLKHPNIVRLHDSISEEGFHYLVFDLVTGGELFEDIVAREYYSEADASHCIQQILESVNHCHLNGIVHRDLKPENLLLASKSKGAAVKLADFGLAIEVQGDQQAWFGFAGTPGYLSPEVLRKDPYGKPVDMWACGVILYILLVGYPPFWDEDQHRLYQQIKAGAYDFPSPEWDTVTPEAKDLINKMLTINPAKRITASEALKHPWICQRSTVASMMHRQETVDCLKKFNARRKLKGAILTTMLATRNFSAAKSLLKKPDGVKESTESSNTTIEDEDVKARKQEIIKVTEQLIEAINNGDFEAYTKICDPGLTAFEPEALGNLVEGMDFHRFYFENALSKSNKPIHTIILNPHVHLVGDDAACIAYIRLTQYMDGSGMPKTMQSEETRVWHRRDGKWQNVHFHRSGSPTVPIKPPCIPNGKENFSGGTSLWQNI
Chain of Serine/threonine-protein kinase N1 (Q16512 2-942 limits assumed): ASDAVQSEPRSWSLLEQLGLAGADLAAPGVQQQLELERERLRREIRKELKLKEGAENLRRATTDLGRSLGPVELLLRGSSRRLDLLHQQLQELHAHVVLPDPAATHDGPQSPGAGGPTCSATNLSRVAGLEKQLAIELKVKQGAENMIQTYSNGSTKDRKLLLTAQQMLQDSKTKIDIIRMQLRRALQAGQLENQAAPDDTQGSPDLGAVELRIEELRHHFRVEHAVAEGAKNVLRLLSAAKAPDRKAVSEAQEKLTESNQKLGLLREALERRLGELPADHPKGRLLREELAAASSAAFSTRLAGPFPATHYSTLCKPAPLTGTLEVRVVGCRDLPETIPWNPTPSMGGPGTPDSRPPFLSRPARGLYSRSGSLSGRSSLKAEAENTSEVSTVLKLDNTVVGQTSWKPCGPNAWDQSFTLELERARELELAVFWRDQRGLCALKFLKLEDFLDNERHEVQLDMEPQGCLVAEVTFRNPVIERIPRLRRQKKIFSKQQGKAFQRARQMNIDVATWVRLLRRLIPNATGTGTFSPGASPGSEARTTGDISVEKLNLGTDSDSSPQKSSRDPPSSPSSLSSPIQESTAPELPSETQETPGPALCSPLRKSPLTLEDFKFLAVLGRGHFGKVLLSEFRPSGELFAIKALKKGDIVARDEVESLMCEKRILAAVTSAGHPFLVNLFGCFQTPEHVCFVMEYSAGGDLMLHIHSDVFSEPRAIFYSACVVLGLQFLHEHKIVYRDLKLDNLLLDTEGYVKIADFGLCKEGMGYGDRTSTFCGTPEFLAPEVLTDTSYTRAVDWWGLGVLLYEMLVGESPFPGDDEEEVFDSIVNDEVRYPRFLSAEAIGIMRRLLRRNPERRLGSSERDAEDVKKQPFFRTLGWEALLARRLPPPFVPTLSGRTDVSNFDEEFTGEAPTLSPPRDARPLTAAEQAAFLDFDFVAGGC
Chain of Ribosomal protein S6 kinase alpha-1 (Q15418 whole entry): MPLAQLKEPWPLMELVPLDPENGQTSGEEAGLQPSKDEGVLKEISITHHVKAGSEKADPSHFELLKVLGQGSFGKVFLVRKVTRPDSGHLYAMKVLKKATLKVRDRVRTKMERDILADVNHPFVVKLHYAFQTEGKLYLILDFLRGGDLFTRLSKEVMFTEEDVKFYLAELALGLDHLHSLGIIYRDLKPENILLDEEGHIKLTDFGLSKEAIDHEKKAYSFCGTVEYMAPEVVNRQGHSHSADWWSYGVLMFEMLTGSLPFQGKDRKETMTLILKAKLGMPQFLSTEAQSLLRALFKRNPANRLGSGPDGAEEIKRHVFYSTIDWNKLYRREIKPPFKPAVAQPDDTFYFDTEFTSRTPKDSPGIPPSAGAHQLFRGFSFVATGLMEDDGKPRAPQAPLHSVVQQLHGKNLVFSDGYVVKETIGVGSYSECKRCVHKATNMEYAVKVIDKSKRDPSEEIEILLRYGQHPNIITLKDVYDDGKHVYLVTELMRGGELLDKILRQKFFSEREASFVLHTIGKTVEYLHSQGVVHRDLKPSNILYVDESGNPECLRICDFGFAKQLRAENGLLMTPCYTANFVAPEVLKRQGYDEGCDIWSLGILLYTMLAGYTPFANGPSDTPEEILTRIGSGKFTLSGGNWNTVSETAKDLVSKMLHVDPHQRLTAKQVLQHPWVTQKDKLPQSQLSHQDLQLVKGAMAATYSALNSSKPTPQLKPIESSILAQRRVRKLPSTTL
Chain of Receptor-interacting serine/threonine-protein kinase 2 (O43353 whole entry): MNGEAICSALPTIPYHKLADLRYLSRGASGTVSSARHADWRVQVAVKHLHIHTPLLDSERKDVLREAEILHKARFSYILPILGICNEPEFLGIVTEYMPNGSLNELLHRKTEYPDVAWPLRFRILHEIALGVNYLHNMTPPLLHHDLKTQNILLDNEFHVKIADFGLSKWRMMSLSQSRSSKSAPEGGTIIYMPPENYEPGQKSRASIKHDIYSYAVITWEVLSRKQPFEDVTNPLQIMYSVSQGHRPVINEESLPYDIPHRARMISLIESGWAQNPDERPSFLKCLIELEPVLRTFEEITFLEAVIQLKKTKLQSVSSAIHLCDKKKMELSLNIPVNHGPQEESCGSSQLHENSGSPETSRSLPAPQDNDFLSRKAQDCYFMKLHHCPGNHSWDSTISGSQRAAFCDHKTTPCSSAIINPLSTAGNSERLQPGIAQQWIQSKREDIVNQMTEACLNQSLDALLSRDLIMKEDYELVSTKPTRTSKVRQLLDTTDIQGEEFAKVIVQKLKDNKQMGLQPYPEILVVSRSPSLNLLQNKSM
Chain of Ribosomal protein S6 kinase alpha-2 (Homo sapiens) (Q15349 whole entry): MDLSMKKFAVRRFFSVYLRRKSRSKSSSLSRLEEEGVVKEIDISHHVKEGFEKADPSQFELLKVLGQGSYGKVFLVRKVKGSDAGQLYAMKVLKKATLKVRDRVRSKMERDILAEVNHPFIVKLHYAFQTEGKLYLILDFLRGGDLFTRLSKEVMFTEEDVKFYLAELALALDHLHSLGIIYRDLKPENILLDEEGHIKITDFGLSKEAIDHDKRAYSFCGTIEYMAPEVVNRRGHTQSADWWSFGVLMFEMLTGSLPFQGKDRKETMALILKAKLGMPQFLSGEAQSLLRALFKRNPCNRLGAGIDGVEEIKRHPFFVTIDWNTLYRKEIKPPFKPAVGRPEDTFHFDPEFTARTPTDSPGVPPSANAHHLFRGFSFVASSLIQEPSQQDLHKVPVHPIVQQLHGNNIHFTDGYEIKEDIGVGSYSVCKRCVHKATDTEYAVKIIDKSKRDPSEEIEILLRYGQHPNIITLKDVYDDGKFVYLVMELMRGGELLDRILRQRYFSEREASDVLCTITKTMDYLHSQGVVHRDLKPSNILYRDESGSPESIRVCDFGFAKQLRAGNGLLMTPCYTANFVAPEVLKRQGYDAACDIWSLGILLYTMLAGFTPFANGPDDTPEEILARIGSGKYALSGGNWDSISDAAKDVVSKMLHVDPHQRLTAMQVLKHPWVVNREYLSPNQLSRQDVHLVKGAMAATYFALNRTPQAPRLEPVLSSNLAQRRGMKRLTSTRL

Molecule `COc1cc(Nc2nc(C)cc(-c3cnn4nc(OC)ccc34)n2)cc(C(F)(F)F)c1` has a % of control [1] of 100%.

`Nc1cnc(N2CCc3cc(S(=O)(=O)Nc4c(F)cc(Cl)cc4F)cc(N4CCCC4=O)c32)nc1` [TP-020n] gave a % of control [2] of 95%.

In the case of `CCC(=O)N1CCN(c2ccc(-n3c(=O)ccc4cnc5ccc(-c6cnc7ccccc7c6)cc5c43)cc2C(F)(F)F)CC1`, the % of control [3] is reported as 86%.

In the case of `C=CC(=O)Nc1cc(-n2c(=O)ccc3cnc4ccc(-c5ccc(NS(C)(=O)=O)cc5)cc4c32)ccc1C`, the % of control ([4]; at 1 µM) is reported as 100% and the % of control ([4]; at 10 µM) is reported as 92%.

`O[C@H]1CC[C@H](Nc2ncc3nc(Nc4c(F)cc(F)cc4F)n([C@H]4CCOC4)c3n2)CC1` was tested, and the % of control [5] was 37%.

With `N#Cc1cccc(-c2c[nH]c3ncnc(N4CCOCC4)c23)c1` the % of control [6] was 56%.

In the case of `Cc1cc(F)c(C(=O)Nc2cccc(-c3nncn3C(C)C)n2)cc1-n1cnc(C2CC2)c1`, the % of control [7] is reported as 87%.

`C=CC(=O)Nc1cccc(C(=O)Nc2ccc(Nc3cc(-c4[nH]c(SC)nc4C)ccn3)cc2)c1` was tested, and the % of control ([8]; at 1 µM) was 68% and the % of control ([8]; at 5 µM) was 31%.
